Tested on: MV-4-11 cells
Assay: Gene expression microarray analysis (Affymetrix PrimeView) and GSEA
Format: cell-based, human
Design: RFU PODN (11730768_x_at) / Fold change /veh PODN (11730768_x_at) / RFU LINC00158 (11744669_a_at) / Fold change /veh LINC00158 (11744669_a_at) / RFU DUSP10 (11751237_a_at) / Fold change /veh DUSP10 (11751237_a_at) / RFU ID3 (11757404_x_at) / Fold change /veh ID3 (11757404_x_at) / RFU PLEKHG5 (11737974_s_at) / Fold change /veh PLEKHG5 (11737974_s_at) / RFU LRRC4B (11730491_at) / Fold change /veh LRRC4B (11730491_at) / RFU GIMAP4 (11747438_a_at) / Fold change /veh GIMAP4 (11747438_a_at) / RFU KRT8 (11758183_x_at) / Fold change /veh KRT8 (11758183_x_at) / RFU CNN1 (11734310_a_at) / Fold change /veh CNN1 (11734310_a_at) / RFU VPS37D (11726825_at) / Fold change /veh VPS37D (11726825_at) / RFU C10orf10 (11716522_x_at) / Fold change /veh C10orf10 (11716522_x_at) / RFU KIR2DL2 /// KIR2DL4 /// KIR2DL5A /// KIR2DL5B /// KIR2DS1 /// KIR2DS2 /// KIR2DS3 /// KIR2DS4 /// KIR3DL3 /// KIR3DL3 /// KIR3DS1 (11738374_at) / Fold change /veh KIR2DL2 /// KIR2DL4 /// KIR2DL5A /// KIR2DL5B /// KIR2DS1 /// KIR2DS2 /// KIR2DS3 /// KIR2DS4 /// KIR3DL3 /// KIR3DL3 /// KIR3DS1 (11738374_at) / RFU C1QL1 (11718748_at) / Fold change /veh C1QL1 (11718748_at) / RFU TMPRSS4 (11747572_a_at) / Fold change /veh TMPRSS4 (11747572_a_at) / RFU HAMP (11756126_x_at) / Fold change /veh HAMP (11756126_x_at) / RFU RNFT2 (11725882_a_at) / Fold change /veh RNFT2 (11725882_a_at) / RFU NR4A2 (11747474_a_at) / Fold change /veh NR4A2 (11747474_a_at) / RFU ABCC12 (11746883_a_at) / Fold change /veh ABCC12 (11746883_a_at) / RFU TMEM136 (11760407_x_at) / Fold change /veh TMEM136 (11760407_x_at) / RFU CLDN22 /// WWC2 (11732394_at) / Fold change /veh CLDN22 /// WWC2 (11732394_at) / RFU HLA-DPB1 (11760878_x_at) / Fold change /veh HLA-DPB1 (11760878_x_at) / RFU SPINT1 (11716480_a_at) / Fold change /veh SPINT1 (11716480_a_at) / RFU GAP43 (11754022_s_at) / Fold change /veh GAP43 (11754022_s_at) / RFU A4GNT (11735810_at) / Fold change /veh A4GNT (11735810_at) / RFU PRB3 (11715151_x_at) / Fold change /veh PRB3 (11715151_x_at) / RFU TUBB4B (11761932_at) / Fold change /veh TUBB4B (11761932_at) / RFU CAPN14 (11732068_a_at) / Fold change /veh CAPN14 (11732068_a_at) / RFU TMCC2 (11721928_a_at) / Fold change /veh TMCC2 (11721928_a_at) / RFU IRGQ (11745062_a_at) / Fold change /veh IRGQ (11745062_a_at) / RFU FAM174B (11720279_a_at) / Fold change /veh FAM174B (11720279_a_at) / RFU TMPRSS4 (11748680_a_at) / Fold change /veh TMPRSS4 (11748680_a_at) / RFU FAM212B (11763350_a_at) / Fold change /veh FAM212B (11763350_a_at) / RFU PLEKHG5 (11743358_a_at) / Fold change /veh PLEKHG5 (11743358_a_at) / RFU ZSCAN30 (11745921_a_at) / Fold change /veh ZSCAN30 (11745921_a_at) / RFU CMKLR1 (11741424_a_at) / Fold change /veh CMKLR1 (11741424_a_at) / RFU LOC101060620 /// MAPK8IP1 (11723275_at) / Fold change /veh LOC101060620 /// MAPK8IP1 (11723275_at) / RFU SPTSSB (11747773_x_at) / Fold change /veh SPTSSB (11747773_x_at) / RFU PRSS12 (11739890_at) / Fold change /veh PRSS12 (11739890_at) / RFU BIN1 (11741810_x_at) / Fold change /veh BIN1 (11741810_x_at) / RFU WNT11 (11732464_a_at) / Fold change /veh WNT11 (11732464_a_at) / RFU C10orf10 (11716521_a_at) / Fold change /veh C10orf10 (11716521_a_at) / RFU C5orf56 (11738089_at) / Fold change /veh C5orf56 (11738089_at) / RFU CYB561 (11721691_x_at) / Fold change /veh CYB561 (11721691_x_at) / RFU ANKRD19P (11752326_a_at) / Fold change /veh ANKRD19P (11752326_a_at) / RFU OR2T12 /// OR2T33 /// OR2T8 (11738714_s_at) / Fold change /veh OR2T12 /// OR2T33 /// OR2T8 (11738714_s_at) / RFU VCAN (11748164_a_at) / Fold change /veh VCAN (11748164_a_at) / RFU JSRP1 (11732532_at) / Fold change /veh JSRP1 (11732532_at) / RFU KRTAP10-11 (11738290_x_at) / Fold change /veh KRTAP10-11 (11738290_x_at) / RFU MYO3A (11730013_a_at) / Fold change /veh MYO3A (11730013_a_at) / RFU EBF3 (11725865_a_at) / Fold change /veh EBF3 (11725865_a_at) / RFU CAMK2N1 (11719241_x_at) / Fold change /veh CAMK2N1 (11719241_x_at) / RFU C5orf56 (11738088_a_at) / Fold change /veh C5orf56 (11738088_a_at) / RFU OLFML3 (11715873_a_at) / Fold change /veh OLFML3 (11715873_a_at) / RFU LOC100653217 /// NTM (11731650_a_at) / Fold change /veh LOC100653217 /// NTM (11731650_a_at) / RFU MAPK11 (11762145_a_at) / Fold change /veh MAPK11 (11762145_a_at) / RFU FIZ1 (11724087_x_at) / Fold change /veh FIZ1 (11724087_x_at) / RFU OASL (11726364_x_at) / Fold change /veh OASL (11726364_x_at) / RFU SOX15 (11748057_x_at) / Fold change /veh SOX15 (11748057_x_at) / RFU CD79A (11719716_a_at) / Fold change /veh CD79A (11719716_a_at) / RFU HIST1H1D (11736915_at) / Fold change /veh HIST1H1D (11736915_at) / RFU CASKIN2 (11723855_a_at) / Fold change /veh CASKIN2 (11723855_a_at) / RFU LOC730098 (11760151_x_at) / Fold change /veh LOC730098 (11760151_x_at) / RFU OR4N2 (11742367_at) / Fold change /veh OR4N2 (11742367_at) / RFU PRRT2 (11749266_a_at) / Fold change /veh PRRT2 (11749266_a_at) / RFU SNX32 (11753110_a_at) / Fold change /veh SNX32 (11753110_a_at) / RFU CDHR5 (11726645_a_at) / Fold change /veh CDHR5 (11726645_a_at) / RFU RCAN1 (11760418_a_at) / Fold change /veh RCAN1 (11760418_a_at) / RFU FAM167A (11723789_a_at) / Fold change /veh FAM167A (11723789_a_at) / RFU FAM26E (11764081_at) / Fold change /veh FAM26E (11764081_at) / RFU ISYNA1 (11749810_s_at) / Fold change /veh ISYNA1 (11749810_s_at) / RFU ACY1 (11761880_at) / Fold change /veh ACY1 (11761880_at) / RFU 11764098_at / Fold change /veh 11764098_at / RFU SAMD14 (11745864_x_at) / Fold change /veh SAMD14 (11745864_x_at) / RFU NPB (11741838_a_at) / Fold change /veh NPB (11741838_a_at) / RFU TMPRSS6 (11731388_a_at) / Fold change /veh TMPRSS6 (11731388_a_at) / RFU KRTAP10-2 (11738614_at) / Fold change /veh KRTAP10-2 (11738614_at) / RFU ARHGAP8 /// PRR5-ARHGAP8 (11727945_x_at) / Fold change /veh ARHGAP8 /// PRR5-ARHGAP8 (11727945_x_at) / RFU KRTAP5-7 /// NADSYN1 (11734609_at) / Fold change /veh KRTAP5-7 /// NADSYN1 (11734609_at) / RFU RASL12 (11751679_a_at) / Fold change /veh RASL12 (11751679_a_at) / RFU CDKN2B (11736163_a_at) / Fold change /veh CDKN2B (11736163_a_at) / RFU PRF1 (11729649_at) / Fold change /veh PRF1 (11729649_at) / RFU, ZNF638 /// ZNF638-IT1 / Fold change vs veh, ZNF638 /// ZNF638-IT1 / RFU, PANK3 / Fold change vs veh, PANK3 / RFU, SH3YL1 / Fold change vs veh, SH3YL1 / RFU, ZEB2 / Fold change vs veh, ZEB2 / RFU, NRIP1 / Fold change vs veh, NRIP1 / RFU, PTTG1IP / Fold change vs veh, PTTG1IP / RFU, CAPN2 / Fold change vs veh, CAPN2 / RFU, MED14 / Fold change vs veh, MED14 / RFU, SNORA58 / Fold change vs veh, SNORA58 / RFU, C1orf63 / Fold change vs veh, C1orf63 / RFU, LRRFIP1 / Fold change vs veh, LRRFIP1 / RFU, NDUFAF7 / Fold change vs veh, NDUFAF7 / RFU, SLC12A2 / Fold change vs veh, SLC12A2 / RFU, IBTK / Fold change vs veh, IBTK / RFU, ESF1 / Fold change vs veh, ESF1 / Fold change vs veh, TMEM50B / RFU, TAOK1 / Fold change vs veh, TAOK1 / RFU, ACBD3 / Fold change vs veh, ACBD3 / RFU, TMA16 / Fold change vs veh, TMA16 / RFU, RWDD3 / Fold change vs veh, RWDD3 / RFU, BCAT1 / Fold change vs veh, BCAT1 / RFU, EDEM3 / Fold change vs veh, EDEM3 / RFU, TMEM33 / Fold change vs veh, TMEM33 / RFU, WDR75 / Fold change vs veh, WDR75 / RFU, AHCTF1 / Fold change vs veh, AHCTF1 / RFU, TFRC / Fold change vs veh, TFRC / RFU, ZDHHC17 / Fold change vs veh, ZDHHC17 / RFU, NOM1 / Fold change vs veh, NOM1 / RFU, ARL8B / Fold change vs veh, ARL8B / RFU, ZBTB11 / Fold change vs veh, ZBTB11 / RFU, TAMM41 / Fold change vs veh, TAMM41 / RFU, KIAA1704 /// LOC100996395 / Fold change vs veh, KIAA1704 /// LOC100996395 / RFU, ING1 / Fold change vs veh, ING1 / RFU, TRMT61B / Fold change vs veh, TRMT61B / RFU, FUBP3 / Fold change vs veh, FUBP3 / RFU, TP53 / Fold change vs veh, TP53 / RFU, TNKS2 / Fold change vs veh, TNKS2 / RFU, ZFP14 / Fold change vs veh, ZFP14 / RFU, ACTR2 / Fold change vs veh, ACTR2 / RFU, PPP3R1 / Fold change vs veh, PPP3R1 / RFU, PIK3R1 / Fold change vs veh, PIK3R1 / RFU, HNRNPA1 / Fold change vs veh, HNRNPA1 / RFU, RNF170 / Fold change vs veh, RNF170 / RFU, ZNF28 / Fold change vs veh, ZNF28 / RFU, RNGTT / Fold change vs veh, RNGTT / RFU, OGT / Fold change vs veh, OGT / RFU, BRD1 / Fold change vs veh, BRD1 / RFU, MARS / Fold change vs veh, MARS / RFU, ZNF655 / Fold change vs veh, ZNF655 / RFU, FAHD1 / Fold change vs veh, FAHD1 / RFU, BDP1 / Fold change vs veh, BDP1 / RFU, LRRCC1 / Fold change vs veh, LRRCC1 / RFU, ARID1A / Fold change vs veh, ARID1A / RFU, ZNF146 / Fold change vs veh, ZNF146 / RFU, ZNF330 / Fold change vs veh, ZNF330 / RFU, GPN3 / Fold change vs veh, GPN3 / RFU, C9orf123 / Fold change vs veh, C9orf123 / RFU, N4BP2L2 / Fold change vs veh, N4BP2L2 / RFU, ARFIP1 / Fold change vs veh, ARFIP1 / RFU, FAM179B / Fold change vs veh, FAM179B / RFU, BCL10 / Fold change vs veh, BCL10 / RFU, UHRF1BP1L / Fold change vs veh, UHRF1BP1L / RFU, BET1 / Fold change vs veh, BET1 / RFU, CNOT2 / Fold change vs veh, CNOT2 / RFU, ZNF268 / Fold change vs veh, ZNF268 / Fold change vs veh, ZNF507 / RFU, DGCR2 / Fold change vs veh, DGCR2 / RFU, WDSUB1 / Fold change vs veh, WDSUB1 / Fold change vs veh, HSP90B1 /// MIR3652 / RFU, ADSS / Fold change vs veh, ADSS / RFU, GK / Fold change vs veh, GK / RFU, ZNF148 / Fold change vs veh, ZNF148 / RFU, TAF9 / Fold change vs veh, TAF9 / RFU, SLC1A5 / Fold change vs veh, SLC1A5 / RFU, SLMO2 / Fold change vs veh, SLMO2 / RFU, ABCC4 / Fold change vs veh, ABCC4 / RFU, LOC101060439 /// RAP1B / Fold change vs veh, LOC101060439 /// RAP1B / RFU, RFX7 / Fold change vs veh, RFX7 / RFU, GTPBP10 / Fold change vs veh, GTPBP10 / RFU, CNEP1R1 / Fold change vs veh, CNEP1R1 / RFU, BIVM-ERCC5 /// ERCC5 / Fold change vs veh, BIVM-ERCC5 /// ERCC5 / RFU, ILF3 / Fold change vs veh, ILF3 / RFU 11762660_at / Fold change /veh 11762660_at / RFU VCAN (11757783_s_at) / Fold change /veh VCAN (11757783_s_at) / RFU DDX43 (11728927_at) / Fold change /veh DDX43 (11728927_at) / RFU KRT8 (11758188_x_at) / Fold change /veh KRT8 (11758188_x_at) / RFU NKD1 (11759106_at) / Fold change /veh NKD1 (11759106_at) / RFU SRD5A1 (11742802_a_at) / Fold change /veh SRD5A1 (11742802_a_at) / RFU TPSAB1 /// TPSB2 (11721975_s_at) / Fold change /veh TPSAB1 /// TPSB2 (11721975_s_at) / RFU GSTM3 (11746129_a_at) / Fold change /veh GSTM3 (11746129_a_at) / RFU IL23R (11737362_x_at) / Fold change /veh IL23R (11737362_x_at) / RFU TMEM51 (11727254_a_at) / Fold change /veh TMEM51 (11727254_a_at) / RFU PIWIL2 (11732686_x_at) / Fold change /veh PIWIL2 (11732686_x_at) / RFU ORM1 (11744905_x_at) / Fold change /veh ORM1 (11744905_x_at) / RFU CCDC152 (11743942_at) / Fold change /veh CCDC152 (11743942_at) / RFU ECM1 (11717891_a_at) / Fold change /veh ECM1 (11717891_a_at) / RFU IL23R (11748794_a_at) / Fold change /veh IL23R (11748794_a_at) / RFU TNFAIP8L3 (11732012_x_at) / Fold change /veh TNFAIP8L3 (11732012_x_at) / RFU MBOAT4 (11741988_at) / Fold change /veh MBOAT4 (11741988_at) / RFU 11764193_at / Fold change /veh 11764193_at / RFU TMEM53 (11763286_at) / Fold change /veh TMEM53 (11763286_at) / RFU MAGEB2 (11727129_at) / Fold change /veh MAGEB2 (11727129_at) / RFU TMEM200A (11744735_a_at) / Fold change /veh TMEM200A (11744735_a_at) / RFU CCDC152 (11751479_a_at) / Fold change /veh CCDC152 (11751479_a_at) / RFU FAM211A (11726209_a_at) / Fold change /veh FAM211A (11726209_a_at) / RFU RGS16 (11746705_a_at) / Fold change /veh RGS16 (11746705_a_at) / RFU VCAN (11755009_s_at) / Fold change /veh VCAN (11755009_s_at) / RFU RHOB (11743442_s_at) / Fold change /veh RHOB (11743442_s_at) / RFU RGS16 (11720943_a_at) / Fold change /veh RGS16 (11720943_a_at) / RFU RGS16 (11720944_at) / Fold change /veh RGS16 (11720944_at) / RFU, VPS4B / Fold change vs veh, VPS4B / RFU, CREB1 / Fold change vs veh, CREB1 / RFU, DNAJC13 / Fold change vs veh, DNAJC13 / RFU, GNAQ / Fold change vs veh, GNAQ / RFU, CDK5R1 / Fold change vs veh, CDK5R1 / RFU, ZRANB3 / Fold change vs veh, ZRANB3 / RFU, CUL4A / Fold change vs veh, CUL4A / RFU, CCNY / Fold change vs veh, CCNY / RFU, UFL1 / Fold change vs veh, UFL1 / RFU, COG3 / Fold change vs veh, COG3 / RFU, DIAPH2 / Fold change vs veh, DIAPH2 / RFU, SKA2 / Fold change vs veh, SKA2 / RFU, AFF3 / Fold change vs veh, AFF3 / RFU, LMF1 / Fold change vs veh, LMF1 / RFU, IPO11 / Fold change vs veh, IPO11 / RFU, DFFB / Fold change vs veh, DFFB / RFU, FOXP1 / Fold change vs veh, FOXP1 / RFU, CARD8 / Fold change vs veh, CARD8 / RFU, STRN3 / Fold change vs veh, STRN3 / RFU, ADK / Fold change vs veh, ADK / RFU, RASSF2 / Fold change vs veh, RASSF2 / RFU, WIPF1 / Fold change vs veh, WIPF1 / RFU, LARP1B / Fold change vs veh, LARP1B / RFU, RASA1 / Fold change vs veh, RASA1 / RFU, RB1 / Fold change vs veh, RB1 / RFU, PPFIA1 / Fold change vs veh, PPFIA1 / RFU, MAT2A / Fold change vs veh, MAT2A / RFU, CCT5 / Fold change vs veh, CCT5 / RFU, WDR92 / Fold change vs veh, WDR92 / RFU, CUX1 / Fold change vs veh, CUX1 / RFU, TTC7A / Fold change vs veh, TTC7A / RFU, TMEM135 / Fold change vs veh, TMEM135 / RFU, DEPTOR / Fold change vs veh, DEPTOR / RFU, CPM / Fold change vs veh, CPM / RFU, DNAJB6 / Fold change vs veh, DNAJB6 / RFU, CACNA2D3 / Fold change vs veh, CACNA2D3 / RFU, DTX4 / Fold change vs veh, DTX4 / RFU, TFCP2 / Fold change vs veh, TFCP2 / RFU, GMCL1 /// GMCL1P1 / Fold change vs veh, GMCL1 /// GMCL1P1 / RFU, AEBP2 / Fold change vs veh, AEBP2 / RFU, SNHG1 /// SNORD22 /// SNORD25 /// SNORD26 /// SNORD27 /// SNORD28 /// SNORD29 /// SNORD31 / Fold change vs veh, SNHG1 /// SNORD22 /// SNORD25 /// SNORD26 /// SNORD27 /// SNORD28 /// SNORD29 /// SNORD31 / Fold change (Aza/veh), C12orf56 (ProbeSet 11735607_a_at) / Fold change (ACY-1035/veh), C12orf56 (ProbeSet 11735607_a_at) / Fold change (Aza/veh), FGFR1OP (ProbeSet 11751329_s_at) / Fold change (ACY-1035/veh), FGFR1OP (ProbeSet 11751329_s_at) / Fold change (Aza/veh), VPS36 (ProbeSet 11739960_a_at) / Fold change (ACY-1035/veh), VPS36 (ProbeSet 11739960_a_at) / RFU SYPL1 (11715823_x_at) / Fold change /veh SYPL1 (11715823_x_at) / RFU IGFBP7 (11715501_s_at) / Fold change /veh IGFBP7 (11715501_s_at) / RFU REEP3 (11722064_at) / Fold change /veh REEP3 (11722064_at) / RFU IGLL1 (11728026_x_at) / Fold change /veh IGLL1 (11728026_x_at): dose or concentration left out as unconfirmed
Details: ProbeSet 11758397_s_at; LIST B

Nc1ncn([C@@H]2O[C@H](CO)[C@@H](O)[C@H]2O)c(=O)n1 [azacitidine]
Fold change vs veh, RNF170: 1.07

— paper PMC5218480 (PLoS ONE, 2017)
